Test results: patent US9636418B2 (priority 2013, dated 2017)
Where “and” joins values, the source holds several entries; their conditions need not be identical. Equal values may be shown once.

Each molecule was assayed against hNav1.7 (Homo sapiens, UniProt Q15858) (assay: cell-based). Settings: PatchXpress, tonic block; read-out: PX hNav1.7 Tonic IC50.
Chain of hNav1.7 (Q15858 whole entry): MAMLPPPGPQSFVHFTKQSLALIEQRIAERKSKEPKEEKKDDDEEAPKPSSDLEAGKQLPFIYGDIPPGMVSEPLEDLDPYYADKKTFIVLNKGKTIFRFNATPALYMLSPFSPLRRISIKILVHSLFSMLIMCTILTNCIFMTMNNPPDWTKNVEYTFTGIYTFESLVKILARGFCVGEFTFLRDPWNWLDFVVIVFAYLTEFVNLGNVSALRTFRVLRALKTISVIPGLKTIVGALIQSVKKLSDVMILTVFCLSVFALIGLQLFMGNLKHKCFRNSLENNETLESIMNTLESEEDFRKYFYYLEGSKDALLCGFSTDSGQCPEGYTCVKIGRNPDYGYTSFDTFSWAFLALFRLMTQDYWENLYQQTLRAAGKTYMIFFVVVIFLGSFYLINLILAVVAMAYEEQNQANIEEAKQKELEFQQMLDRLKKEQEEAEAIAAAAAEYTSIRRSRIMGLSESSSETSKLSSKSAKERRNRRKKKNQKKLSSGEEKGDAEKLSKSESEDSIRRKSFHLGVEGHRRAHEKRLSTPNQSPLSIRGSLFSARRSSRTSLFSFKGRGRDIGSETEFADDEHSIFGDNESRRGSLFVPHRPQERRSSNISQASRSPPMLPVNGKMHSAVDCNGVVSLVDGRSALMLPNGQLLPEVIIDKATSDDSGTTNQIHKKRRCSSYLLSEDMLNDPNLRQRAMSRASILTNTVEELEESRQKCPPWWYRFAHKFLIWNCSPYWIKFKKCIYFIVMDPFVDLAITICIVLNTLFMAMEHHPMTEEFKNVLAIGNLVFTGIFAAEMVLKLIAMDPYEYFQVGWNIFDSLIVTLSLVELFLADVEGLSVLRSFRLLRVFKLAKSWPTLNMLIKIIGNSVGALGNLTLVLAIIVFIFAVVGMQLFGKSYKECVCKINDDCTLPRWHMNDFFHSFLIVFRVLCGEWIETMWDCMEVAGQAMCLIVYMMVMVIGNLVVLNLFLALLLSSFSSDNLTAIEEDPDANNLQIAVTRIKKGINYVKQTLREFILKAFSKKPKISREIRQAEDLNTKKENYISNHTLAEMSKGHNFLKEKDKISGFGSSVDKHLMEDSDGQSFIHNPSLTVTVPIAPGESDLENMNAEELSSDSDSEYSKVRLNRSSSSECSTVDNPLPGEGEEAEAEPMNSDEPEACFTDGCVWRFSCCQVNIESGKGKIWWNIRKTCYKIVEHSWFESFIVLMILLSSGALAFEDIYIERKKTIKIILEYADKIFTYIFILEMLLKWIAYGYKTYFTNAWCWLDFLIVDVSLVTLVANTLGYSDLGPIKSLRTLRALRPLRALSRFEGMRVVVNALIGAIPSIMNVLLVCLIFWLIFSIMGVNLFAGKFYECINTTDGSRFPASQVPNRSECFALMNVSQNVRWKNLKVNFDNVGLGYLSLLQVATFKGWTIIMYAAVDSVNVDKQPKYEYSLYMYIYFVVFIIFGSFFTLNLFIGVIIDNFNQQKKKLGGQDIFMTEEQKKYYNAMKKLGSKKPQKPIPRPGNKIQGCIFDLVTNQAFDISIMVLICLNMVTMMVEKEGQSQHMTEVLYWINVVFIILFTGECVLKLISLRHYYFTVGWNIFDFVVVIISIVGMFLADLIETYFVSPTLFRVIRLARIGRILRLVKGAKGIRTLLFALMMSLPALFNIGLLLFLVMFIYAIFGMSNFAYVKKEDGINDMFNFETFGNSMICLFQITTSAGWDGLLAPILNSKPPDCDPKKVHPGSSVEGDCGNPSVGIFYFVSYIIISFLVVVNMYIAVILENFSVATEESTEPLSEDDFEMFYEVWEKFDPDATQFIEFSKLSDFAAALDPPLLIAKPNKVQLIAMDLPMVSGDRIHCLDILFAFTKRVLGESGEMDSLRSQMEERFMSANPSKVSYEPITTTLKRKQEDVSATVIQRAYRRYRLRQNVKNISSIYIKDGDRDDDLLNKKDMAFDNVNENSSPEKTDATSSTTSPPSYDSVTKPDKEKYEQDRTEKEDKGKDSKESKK
Assay type: cell-based
Molecule C#CC[C@H](N)C(=O)NCCCC[C@@H]1NC(=O)[C@H](CCCNC(=N)N)NC(=O)[C@H](CCCCN)NC(=O)[C@H](CO)NC(=O)[C@H](CC(=O)O)NC(=O)[C@@H]2CSSC[C@@H]3NC(=O)[C@H](CCC(=O)O)NC(=O)[C@H](CC(C)C)NC(=O)CNC(=O)[C@H](CCC(=O)O)NC(=O)[C@H](CSSC[C@H](NC(=O)[C@H](Cc4ccc(O)cc4)NC(=O)[C@@H](N)CCC)C(=O)N[C@@H](CCC(N)=O)C(=O)N[C@@H](CCCCN)C(=O)N[C@@H](Cc4c[nH]c5ccccc45)C(=O)N[C@@H](CCCC)C(=O)N[C@@H](Cc4c[nH]c5ccccc45)C(=O)N[C@@H]([C@@H](C)O)C(=O)N2)NC(=O)[C@H](CSSC[C@@H](C(=O)N[C@@H](CCCNC(=N)N)C(=O)N[C@@H](CCCCN)C(=O)N[C@@H](Cc2ccc(O)cc2)C(=O)N[C@H](C(N)=O)[C@@H](C)CC)NC(=O)[C@H](Cc2c[nH]c4ccccc24)NC(=O)[C@H](CC(C)C)NC(=O)[C@H](CCCCN)NC3=O)NC1=O [compound 436] has an IC50 of 2.96 nM.
Work on C#CC[C@H](N)C(=O)NCCCC[C@@H]1NC(=O)[C@H](CCCNC(=N)N)NC(=O)[C@H](CCCCN)NC(=O)[C@H](CO)NC(=O)[C@H](CC(=O)O)NC(=O)[C@@H]2CSSC[C@@H]3NC(=O)[C@H](CCC(=O)O)NC(=O)[C@H](CC(C)C)NC(=O)CNC(=O)[C@H](CCC(=O)O)NC(=O)[C@H](CSSC[C@H](NC(=O)[C@H](Cc4ccc(O)cc4)NC(=O)[C@@H](N)CCC)C(=O)N[C@@H](CCC(N)=O)C(=O)N[C@@H](CCCCN)C(=O)N[C@@H](Cc4c[nH]c5ccccc45)C(=O)N[C@@H](CCCC)C(=O)N[C@@H](Cc4c[nH]c5ccccc45)C(=O)N[C@@H]([C@@H](C)O)C(=O)N2)NC(=O)[C@H](CSSC[C@@H](C(=O)N[C@@H](CCCNC(=N)N)C(=O)N[C@@H](CCCCN)C(=O)N[C@H](C(=O)N[C@@H](Cc2c[nH]c4ccccc24)C(N)=O)[C@@H](C)CC)NC(=O)[C@H](Cc2c[nH]c4ccccc24)NC(=O)[C@H](CC(C)C)NC(=O)[C@H](CCCCN)NC3=O)NC1=O [compound 437] yielded an IC50 of 9.59 nM.
With C#CC[C@H](N)C(=O)NCCCC[C@@H]1NC(=O)[C@H](CCCNC(=N)N)NC(=O)[C@H](CCCCN)NC(=O)[C@H](CO)NC(=O)[C@H](CC(=O)O)NC(=O)[C@@H]2CSSC[C@@H]3NC(=O)[C@H](CCCNC(=N)N)NC(=O)[C@H](CC(C)C)NC(=O)CNC(=O)[C@H](CCC(=O)O)NC(=O)[C@H](CSSC[C@H](NC(=O)[C@H](Cc4ccc(O)cc4)NC(=O)[C@@H](N)CCC)C(=O)N[C@@H](CCC(N)=O)C(=O)N[C@@H](CCCCN)C(=O)N[C@@H](Cc4c[nH]c5ccccc45)C(=O)N[C@@H](CC(C)C)C(=O)N[C@@H](Cc4c[nH]c5ccccc45)C(=O)N[C@@H]([C@@H](C)O)C(=O)N2)NC(=O)[C@H](CSSC[C@@H](C(=O)N[C@@H](CCCNC(=N)N)C(=O)N[C@@H](CCCCN)C(=O)N[C@@H](CCC(=O)O)C(=O)N[C@H](C(N)=O)[C@@H](C)CC)NC(=O)[C@H](Cc2c[nH]c4ccccc24)NC(=O)[C@H](CC(C)C)NC(=O)[C@H](CCCCN)NC3=O)NC1=O [compound 439] the IC50 was 1.04 nM and 1.37 nM and 0.384 nM and 0.612 nM.

Same assay, conditions: PatchXpress; * = at high concentrations compound would wash off slowly or not at all; read-out: PX hNav1.7 Tonic IC50
CCCC[C@@H]1NC(=O)[C@H](Cc2c[nH]c3ccccc23)NC(=O)[C@H](CCCCN)NC(=O)[C@H](CCC(N)=O)NC(=O)[C@@H](NC(=O)[C@H](Cc2ccc(O)cc2)NC(=O)[C@@H](N)Cc2ccccc2)CSSC[C@@H]2NC(=O)[C@@H]3CSSC[C@@H](C(=O)N[C@@H](CCCNC(=N)N)C(=O)N[C@@H](CCCCN)C(=O)N[C@H](C(=O)N[C@H](C(N)=O)[C@@H](C)CC)[C@@H](C)CC)NC(=O)[C@H](Cc4c[nH]c5ccccc45)NC(=O)[C@H](CC(C)C)NC(=O)[C@H](CCCCN)NC(=O)[C@H](CSSC[C@H](NC(=O)[C@H]([C@@H](C)O)NC(=O)[C@H](Cc4c[nH]c5ccccc45)NC1=O)C(=O)N[C@@H](CC(=O)O)C(=O)N[C@@H](CO)C(=O)N[C@@H](CCCCN)C(=O)N[C@@H](CCCNC(=N)N)C(=O)N[C@@H](C)C(=O)N3)NC(=O)[C@H](CCCNC(=N)N)NC(=O)[C@H](CC(C)C)NC(=O)CNC(=O)[C@H](CCC(=O)O)NC2=O [compound 358] gave an IC50 of 0.493 nM.
CCCC[C@@H]1NC(=O)[C@H](Cc2c[nH]c3ccccc23)NC(=O)[C@H](CCCCN)NC(=O)[C@H](CCC(N)=O)NC(=O)[C@@H](NC(=O)[C@H](Cc2ccc(O)cc2)NC(=O)CN)CSSC[C@@H]2NC(=O)[C@@H]3CSSC[C@@H](C(=O)N[C@@H](CCCNC(=N)N)C(=O)N[C@@H](CCCCN)C(=O)N[C@H](C(=O)N[C@H](C(N)=O)[C@@H](C)CC)[C@@H](C)CC)NC(=O)[C@H](Cc4c[nH]c5ccccc45)NC(=O)[C@H](CC(C)C)NC(=O)[C@H](CCCCN)NC(=O)[C@H](CSSC[C@H](NC(=O)[C@H]([C@@H](C)O)NC(=O)[C@H](Cc4c[nH]c5ccccc45)NC1=O)C(=O)N[C@@H](CC(=O)O)C(=O)N[C@@H](CO)C(=O)N[C@@H](CCCCN)C(=O)N[C@@H](CCCNC(=N)N)C(=O)N[C@@H](C)C(=O)N3)NC(=O)[C@H](CCCNC(=N)N)NC(=O)[C@H](CC(C)C)NC(=O)CNC(=O)[C@H](CCC(=O)O)NC2=O [compound 359] was tested, and the IC50 was 0.384 nM.
CCCC[C@@H]1NC(=O)[C@H](Cc2c[nH]c3ccccc23)NC(=O)[C@H](CCCCN)NC(=O)[C@H](CCC(N)=O)NC(=O)[C@@H](NC(=O)[C@H](Cc2ccc(O)cc2)NC(=O)[C@@H](N)[C@@H](C)CC)CSSC[C@@H]2NC(=O)[C@@H]3CSSC[C@@H](C(=O)N[C@@H](CCCNC(=N)N)C(=O)N[C@@H](CCCCN)C(=O)N[C@H](C(=O)N[C@H](C(N)=O)[C@@H](C)CC)[C@@H](C)CC)NC(=O)[C@H](Cc4c[nH]c5ccccc45)NC(=O)[C@H](CC(C)C)NC(=O)[C@H](CCCCN)NC(=O)[C@H](CSSC[C@H](NC(=O)[C@H]([C@@H](C)O)NC(=O)[C@H](Cc4c[nH]c5ccccc45)NC1=O)C(=O)N[C@@H](CC(=O)O)C(=O)N[C@@H](CO)C(=O)N[C@@H](CCCCN)C(=O)N[C@@H](CCCNC(=N)N)C(=O)N[C@@H](C)C(=O)N3)NC(=O)[C@H](CCCNC(=N)N)NC(=O)[C@H](CC(C)C)NC(=O)CNC(=O)[C@H](CCC(=O)O)NC2=O [compound 360] showed an IC50 of 0.519 nM.
CCCC[C@@H]1NC(=O)[C@H](Cc2c[nH]c3ccccc23)NC(=O)[C@H](CCCCN)NC(=O)[C@H](CCC(N)=O)NC(=O)[C@@H](NC(=O)[C@H](Cc2ccc(O)cc2)NC(=O)[C@@H]2CCCN2)CSSC[C@@H]2NC(=O)[C@@H]3CSSC[C@@H](C(=O)N[C@@H](CCCNC(=N)N)C(=O)N[C@@H](CCCCN)C(=O)N[C@H](C(=O)N[C@H](C(N)=O)[C@@H](C)CC)[C@@H](C)CC)NC(=O)[C@H](Cc4c[nH]c5ccccc45)NC(=O)[C@H](CC(C)C)NC(=O)[C@H](CCCCN)NC(=O)[C@H](CSSC[C@H](NC(=O)[C@H]([C@@H](C)O)NC(=O)[C@H](Cc4c[nH]c5ccccc45)NC1=O)C(=O)N[C@@H](CC(=O)O)C(=O)N[C@@H](CO)C(=O)N[C@@H](CCCCN)C(=O)N[C@@H](CCCNC(=N)N)C(=O)N[C@@H](C)C(=O)N3)NC(=O)[C@H](CCCNC(=N)N)NC(=O)[C@H](CC(C)C)NC(=O)CNC(=O)[C@H](CCC(=O)O)NC2=O [compound 362] gave an IC50 of 0.372 nM.
In the case of CCCC[C@@H]1NC(=O)[C@H](Cc2c[nH]c3ccccc23)NC(=O)[C@H](CCCCN)NC(=O)[C@H](CCC(N)=O)NC(=O)[C@@H](NC(=O)[C@H](Cc2ccc(O)cc2)NC(=O)[C@@H](N)C(C)C)CSSC[C@@H]2NC(=O)[C@@H]3CSSC[C@@H](C(=O)N[C@@H](CCCNC(=N)N)C(=O)N[C@@H](CCCCN)C(=O)N[C@H](C(=O)N[C@H](C(N)=O)[C@@H](C)CC)[C@@H](C)CC)NC(=O)[C@H](Cc4c[nH]c5ccccc45)NC(=O)[C@H](CC(C)C)NC(=O)[C@H](CCCCN)NC(=O)[C@H](CSSC[C@H](NC(=O)[C@H]([C@@H](C)O)NC(=O)[C@H](Cc4c[nH]c5ccccc45)NC1=O)C(=O)N[C@@H](CC(=O)O)C(=O)N[C@@H](CO)C(=O)N[C@@H](CCCCN)C(=O)N[C@@H](CCCNC(=N)N)C(=O)N[C@@H](C)C(=O)N3)NC(=O)[C@H](CCCNC(=N)N)NC(=O)[C@H](CC(C)C)NC(=O)CNC(=O)[C@H](CCC(=O)O)NC2=O [compound 363], the IC50 is reported as 0.551 nM.
CCCC[C@@H]1NC(=O)[C@H](Cc2c[nH]c3ccccc23)NC(=O)[C@H](CCCCN)NC(=O)[C@H](CCC(N)=O)NC(=O)[C@@H](NC(=O)[C@H](Cc2ccc(O)cc2)NC(=O)[C@@H](N)Cc2ccc(O)cc2)CSSC[C@@H]2NC(=O)[C@@H]3CSSC[C@@H](C(=O)N[C@@H](CCCNC(=N)N)C(=O)N[C@@H](CCCCN)C(=O)N[C@H](C(=O)N[C@H](C(N)=O)[C@@H](C)CC)[C@@H](C)CC)NC(=O)[C@H](Cc4c[nH]c5ccccc45)NC(=O)[C@H](CC(C)C)NC(=O)[C@H](CCCCN)NC(=O)[C@H](CSSC[C@H](NC(=O)[C@H]([C@@H](C)O)NC(=O)[C@H](Cc4c[nH]c5ccccc45)NC1=O)C(=O)N[C@@H](CC(=O)O)C(=O)N[C@@H](CO)C(=O)N[C@@H](CCCCN)C(=O)N[C@@H](CCCNC(=N)N)C(=O)N[C@@H](C)C(=O)N3)NC(=O)[C@H](CCCNC(=N)N)NC(=O)[C@H](CC(C)C)NC(=O)CNC(=O)[C@H](CCC(=O)O)NC2=O [compound 365] gave an IC50 of 0.372 nM.
C=CC[C@H](N)C(=O)N[C@@H](Cc1ccc(O)cc1)C(=O)N[C@H]1CSSC[C@@H]2NC(=O)[C@@H]3CSSC[C@@H](C(=O)N[C@@H](CCCNC(=N)N)C(=O)N[C@@H](CCCCN)C(=O)N[C@H](C(=O)N[C@H](C(N)=O)[C@@H](C)CC)[C@@H](C)CC)NC(=O)[C@H](Cc4c[nH]c5ccccc45)NC(=O)[C@H](CC(C)C)NC(=O)[C@H](CCCCN)NC(=O)[C@H](CSSC[C@H](NC(=O)[C@H]([C@@H](C)O)NC(=O)[C@H](Cc4c[nH]c5ccccc45)NC(=O)[C@H](CCCC)NC(=O)[C@H](Cc4c[nH]c5ccccc45)NC(=O)[C@H](CCCCN)NC(=O)[C@H](CCC(N)=O)NC1=O)C(=O)N[C@@H](CC(=O)O)C(=O)N[C@@H](CO)C(=O)N[C@@H](CCCCN)C(=O)N[C@@H](CCCNC(=N)N)C(=O)N[C@@H](C)C(=O)N3)NC(=O)[C@H](CCCNC(=N)N)NC(=O)[C@H](CC(C)C)NC(=O)CNC(=O)[C@H](CCC(=O)O)NC2=O [compound 367] showed an IC50 of 0.488 nM.
